Test results reported in ChEMBL document CHEMBL4270601, “Design and synthesis of multipotent 3-aminomethylindoles and 7-azaindoles with enhanced protein phosphatase 2A-activating profile and neuroprotection” (Eur J Med Chem, 2018).
The source made the active and inactive calls. The calls are words filed in the database; no cut-off is given here.

Key:
[1] = test system: SH-SY5Y; experiment: Neuroprotective activity against cocktail of rotenone plus oligomycin A-induced oxidative stress in human SH-SY5Y cells assessed as increase in cell viability at 10 nM preincubated for 24 hrs followed by […] measured after 24 hrs by MTT assay relative to control; format: functional
[2] = test system: SH-SY5Y; experiment: Cytotoxicity against human SH-SY5Y cells assessed as decrease in cell viability up to 30 uM after 48 hrs by MTT assay; format: cell-based
[3] = test system: SH-SY5Y; experiment: Reversal of okadaic acid-mediated PP2A catalytic subunit C Ser/Thr phosphatase activity inactivation in human SH-SY5Y cells assessed as recovery of PP2A activity at 0.1 uM preincubated for 24 hrs followed by cotreatment with PPA2 inhibitor okadaic acid for 18 hrs measured over 30 mins by pNPP based spectrophotometric analysis relative to control; format: cell-based; parameters: scale not given: the % may be the effect or the level left
[4] = test system: SH-SY5Y; experiment: Neuroprotective activity against okadaic acid-induced oxidative stress in human SH-SY5Y cells assessed as increase in cell viability at 0.1 uM preincubated for 24 hrs followed by OA addition measured after 20 hrs by MTT assay relative to control; format: functional
[5] = test system: Voltage-gated calcium channel; experiment: Inhibition of voltage gated calcium channel in human SH-SY5Y cells assessed as blockade of K+-evoked calcium uptake at 1 uM pretreated for 10 mins followed by 70 mM K+ addition by Fluo-4AM dye based fluorescence assay relative to control; format: cell-based
[6] = species: Bos taurus; experiment: Inhibition of P/Q-type voltage dependent calcium channel in bovine Chromaffin cells assessed as reduction in K+-induced calcium current at 1 uM after 3 mins by whole cell patch clamp electrophysiology assay; format: cell-based
[7] = target: Voltage-dependent N-type calcium channel subunit alpha (Bos taurus) (UniProt G3X7Z2); experiment: Inhibition of N-type voltage dependent calcium channel in bovine Chromaffin cells assessed as reduction in K+-induced calcium current at 1 uM after 3 mins by whole cell patch clamp electrophysiology assay; format: cell-based
[8] = test system: SH-SY5Y; experiment: Reversal of okadaic acid-mediated PP2A inactivation in human SH-SY5Y cells assessed as decrease in Tau phosphorylation at Ser202/Thr205 residues at 0.1 uM after 24 hrs by Western blot method; format: cell-based
[9] = test system: Voltage-gated calcium channel; experiment: Inhibition of voltage gated calcium channel in human SH-SY5Y cells assessed as blockade of K+-evoked calcium uptake at 3 uM pretreated for 10 mins followed by 70 mM K+ addition by Fluo-4AM dye based fluorescence assay relative to control; format: cell-based

Chain of Voltage-dependent N-type calcium channel subunit alpha (Bos taurus) (G3X7Z2 as listed by the source): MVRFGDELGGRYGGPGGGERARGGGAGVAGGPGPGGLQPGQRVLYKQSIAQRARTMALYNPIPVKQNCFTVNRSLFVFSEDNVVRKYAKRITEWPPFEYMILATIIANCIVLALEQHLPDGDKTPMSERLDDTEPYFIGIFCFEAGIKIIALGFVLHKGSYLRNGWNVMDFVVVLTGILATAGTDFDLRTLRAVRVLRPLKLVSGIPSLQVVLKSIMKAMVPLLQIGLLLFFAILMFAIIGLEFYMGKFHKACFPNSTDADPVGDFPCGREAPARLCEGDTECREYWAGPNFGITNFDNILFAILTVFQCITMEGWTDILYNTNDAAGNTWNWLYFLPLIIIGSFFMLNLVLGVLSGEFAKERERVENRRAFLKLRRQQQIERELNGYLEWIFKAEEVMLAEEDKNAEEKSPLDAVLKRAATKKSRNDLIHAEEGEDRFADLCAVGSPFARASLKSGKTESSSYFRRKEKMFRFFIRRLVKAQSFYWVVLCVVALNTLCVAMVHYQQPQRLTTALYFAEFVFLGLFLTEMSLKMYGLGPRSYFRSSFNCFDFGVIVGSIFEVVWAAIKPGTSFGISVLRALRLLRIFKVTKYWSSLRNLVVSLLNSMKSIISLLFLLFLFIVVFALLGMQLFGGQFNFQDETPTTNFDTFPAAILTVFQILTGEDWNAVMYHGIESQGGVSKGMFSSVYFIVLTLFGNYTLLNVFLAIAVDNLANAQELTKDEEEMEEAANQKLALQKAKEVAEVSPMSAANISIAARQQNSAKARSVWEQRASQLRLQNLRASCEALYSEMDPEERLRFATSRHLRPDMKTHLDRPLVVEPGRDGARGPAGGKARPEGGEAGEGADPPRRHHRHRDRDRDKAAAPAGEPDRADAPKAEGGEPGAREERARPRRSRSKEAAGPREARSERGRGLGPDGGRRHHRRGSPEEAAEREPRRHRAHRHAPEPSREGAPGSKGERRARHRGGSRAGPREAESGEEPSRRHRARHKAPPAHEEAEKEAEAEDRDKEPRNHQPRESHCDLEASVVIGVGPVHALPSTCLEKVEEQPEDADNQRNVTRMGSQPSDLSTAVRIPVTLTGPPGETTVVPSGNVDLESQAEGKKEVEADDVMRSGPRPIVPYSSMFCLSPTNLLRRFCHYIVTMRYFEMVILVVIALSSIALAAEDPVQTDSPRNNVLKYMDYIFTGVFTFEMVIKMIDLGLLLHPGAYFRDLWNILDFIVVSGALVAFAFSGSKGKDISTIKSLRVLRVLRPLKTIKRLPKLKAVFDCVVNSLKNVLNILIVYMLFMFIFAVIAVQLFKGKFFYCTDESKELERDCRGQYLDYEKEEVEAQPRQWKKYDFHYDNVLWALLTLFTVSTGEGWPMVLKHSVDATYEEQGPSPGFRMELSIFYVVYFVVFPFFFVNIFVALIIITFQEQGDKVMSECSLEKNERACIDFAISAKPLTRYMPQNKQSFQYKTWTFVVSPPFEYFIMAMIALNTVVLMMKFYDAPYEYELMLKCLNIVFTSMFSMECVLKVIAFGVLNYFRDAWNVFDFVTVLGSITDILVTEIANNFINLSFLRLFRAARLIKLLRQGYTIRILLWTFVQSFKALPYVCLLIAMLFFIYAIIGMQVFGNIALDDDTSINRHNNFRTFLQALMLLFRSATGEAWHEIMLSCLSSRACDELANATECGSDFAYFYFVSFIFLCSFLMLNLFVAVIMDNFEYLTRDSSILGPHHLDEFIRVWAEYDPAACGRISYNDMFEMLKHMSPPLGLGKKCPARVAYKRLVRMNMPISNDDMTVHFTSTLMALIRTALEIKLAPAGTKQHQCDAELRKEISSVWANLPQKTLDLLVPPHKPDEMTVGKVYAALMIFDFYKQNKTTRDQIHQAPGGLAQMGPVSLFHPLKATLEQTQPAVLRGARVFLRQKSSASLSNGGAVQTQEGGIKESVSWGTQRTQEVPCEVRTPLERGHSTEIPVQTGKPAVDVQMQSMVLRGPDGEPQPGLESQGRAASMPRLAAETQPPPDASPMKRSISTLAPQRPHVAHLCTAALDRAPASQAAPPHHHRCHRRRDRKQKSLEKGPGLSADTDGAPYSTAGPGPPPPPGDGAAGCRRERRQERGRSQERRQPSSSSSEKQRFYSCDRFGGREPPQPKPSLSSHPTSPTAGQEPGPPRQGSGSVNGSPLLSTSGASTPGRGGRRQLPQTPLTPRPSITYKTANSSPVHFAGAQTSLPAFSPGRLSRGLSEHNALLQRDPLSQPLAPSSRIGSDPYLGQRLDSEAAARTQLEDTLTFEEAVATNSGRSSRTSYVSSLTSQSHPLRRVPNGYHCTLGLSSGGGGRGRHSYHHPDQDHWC

Structure (SMILES) | inhibition (INH) [5] | inhibition [7] | Activity [1] | Activity [2] | Activity [3] | Activity [4] | inhibition [6] | Activity [8] | inhibition (INH) [9]
CCCCn1cc(CN2CCCCC2)c2cc(Br)cnc21 | 9% |  | 39% | Non-Toxic | 22% | 98% |  |  | 
c1ccc(Cn2cc(CN3CCCCC3)c3ccccc32)cc1 | 11% |  | 28% | Non-Toxic | 37% | 65% |  |  | 
COc1ccc2[nH]cc(CCNC(C)=O)c2c1 [MELATONIN] |  |  | 36% |  |  |  |  |  | 
CC12CC3CC(C)(C1)CC(N)(C3)C2 [MEMANTINE] |  |  |  |  | 28% | 63% |  |  | 
CCCCn1cc(CN2CCCCC2)c2ccccc21 | 13% |  | 25% | Non-Toxic | 30% | 55% |  |  | 
C#CCn1cc(CN2CCCCC2)c2cc(Br)cnc21 | 8% |  | 13% | Non-Toxic | 25% | 68% |  |  | 
CCCCn1cc(CN2CCCCC2)c2cc(Cl)ccc21 | 24% |  | 27% | Non-Toxic | 38% | 98% |  |  | 
COC(=O)C1=C(C)NC(C)=C(C(=O)OC)C1c1ccccc1[N+](=O)[O-] [NIFEDIPINE] |  |  |  |  |  |  |  |  | 40%
C#CCn1cc(CN2CCCCC2)c2cc(Cl)ccc21 | 32% |  | 16% | Non-Toxic | 44% | 55% |  |  | 
CCCCn1cc(CN(C)C)c2cc(Cl)ccc21 | 23% |  | 38% | Non-Toxic | 39% | 93% |  |  | 
C#CCn1cc(CN2CCCCC2)c2ccccc21 | 35% |  | 41% | Non-Toxic | 17% | 58% |  |  | 

More lines, main results first:

inhibition (INH) [5] | inhibition [7] | Structure (SMILES) | Activity [1] | Activity [2] | Activity [3] | Activity [4] | inhibition [6] | Activity [8] | inhibition (INH) [9]
10% |  | CCCCn1cc(CN(C)C)c2cc(Br)cnc21 | 18% | Non-Toxic | 34% | 57% |  |  | 
18% |  | C#CCn1cc(CN(C)C)c2cc(Cl)ccc21 | 26% | Non-Toxic | 23% | 43% |  |  | 
10% |  | COc1cnc2c(c1)c(CN(C)C)cn2Cc1ccccc1 | 29% | Non-Toxic | 33% | 51% |  |  | 
37% |  | Clc1ccc2c(c1)c(CN1CCCCC1)cn2Cc1ccccc1 | 24% | Non-Toxic | 27% | 62% |  |  | 
3% |  | C#CCn1cc(CN(C)C)c2ccccc21 | 32% | Non-Toxic | 59% | 75% |  |  | 
19% |  | COc1cnc2c(c1)c(CN1CCCCC1)cn2Cc1ccccc1 | 40% | Non-Toxic | 47% | 62% |  |  | 
22% |  | CN(C)Cc1cn(Cc2ccccc2)c2ccccc12 | 34% | Non-Toxic | 45% | 67% |  |  | 
46% | Active | CN(C)Cc1cn(Cc2ccccc2)c2ncc(Br)cc12 | 32% | Non-Toxic | 21% | 84% | Active |  | 
40% | Active | CN(C)Cc1cn(Cc2ccccc2)c2ccc(Cl)cc12 | 32% | Non-Toxic | 78% | 88% | Active | Active | 
11% |  | C#CCn1cc(CN(C)C)c2cc(Br)cnc21 | 17% | Non-Toxic | 17% | 63% |  |  | 
15% |  | Brc1cnc2c(c1)c(CN1CCCCC1)cn2Cc1ccccc1 | 25% | Non-Toxic | 31% | 60% |  |  | 
7% |  | CCCCn1cc(CN(C)C)c2ccccc21 | 20% | Non-Toxic | 12% | 50% |  |  | 
